Test results from article PMC8764865, “Activity-based protein profiling reveals dynamic substrate-specific cellulase secretion by saprotrophic basidiomycetes” (Biotechnology for Biofuels and Bioproducts, 2022).

What was measured:
Type in all cases: biochemical
LsGH5_5A = target: T1, LsGH5_5A (Trametes sp., UniProt Z9YXY2URI3); assay: continuous fluorogenic inhibition kinetics, 4MU-GG substrate; conditions: covalent, time-dependent; up to 50 uM inhibitor; 0.4 mM substrate stock mixed 1:1; NaOAc pH 4.0
T1 construct: native signal peptide removed (alpha-factor secretion signal), C-terminal 6xHis (intact), codon-optimised, Pichia pastoris X-33
T1 sequence (Z9YXY2URI3 1-398): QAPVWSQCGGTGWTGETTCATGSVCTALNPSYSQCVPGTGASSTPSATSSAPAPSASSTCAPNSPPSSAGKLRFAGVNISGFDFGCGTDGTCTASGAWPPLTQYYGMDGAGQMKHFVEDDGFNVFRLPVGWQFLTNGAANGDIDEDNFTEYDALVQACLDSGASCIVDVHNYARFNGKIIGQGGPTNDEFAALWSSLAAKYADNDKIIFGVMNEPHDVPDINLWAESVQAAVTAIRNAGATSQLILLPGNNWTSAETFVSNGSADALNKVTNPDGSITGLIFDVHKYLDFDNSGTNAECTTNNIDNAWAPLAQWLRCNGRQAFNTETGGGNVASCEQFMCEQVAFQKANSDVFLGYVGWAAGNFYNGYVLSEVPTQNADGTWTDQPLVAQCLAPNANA

LsGH10A [1] = target: T2, LsGH10A (Trametes sp., UniProt Z9JQD7XB80); assay: as above; conditions: covalent, time-dependent; up to 50 uM inhibitor; 0.4 mM substrate stock mixed 1:1; NaOAc pH 4.0
T2 construct: native signal peptide removed (alpha-factor secretion signal), C-terminal 6xHis, codon-optimised, Pichia pastoris X-33; later-eluting Superdex 200 peak

TlGH12A = target: T3, TlGH12A (Pilatotrama ljubarskyi, UniProt Z9OT85M9A7); assay: as above; conditions: covalent, time-dependent; up to 50 uM inhibitor; 0.4 mM substrate stock mixed 1:1; NaOAc pH 4.0
T3 construct: native signal peptide removed (alpha-factor secretion signal), C-terminal 6xHis, codon-optimised, Pichia pastoris X-33
T3 sequence (Z9OT85M9A7 1-225): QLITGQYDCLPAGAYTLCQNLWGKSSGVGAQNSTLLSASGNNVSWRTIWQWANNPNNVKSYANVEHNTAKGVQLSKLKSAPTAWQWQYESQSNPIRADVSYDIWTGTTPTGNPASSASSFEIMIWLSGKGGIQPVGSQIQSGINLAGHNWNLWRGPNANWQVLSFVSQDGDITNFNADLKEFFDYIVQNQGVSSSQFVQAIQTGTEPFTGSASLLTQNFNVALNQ

LsGH10A [2] = target: T2, LsGH10A; assay: continuous fluorogenic inhibition kinetics (4-methylumbelliferyl glycoside); conditions: non-covalent; no covalent inhibition discernible after 1 h; 50 mM NaOAc pH 4.0 final; inhibition assay, printed only as affinity

| Structure (SMILES) | ki/KI (LsGH5_5A) | ki/KI (LsGH10A [1]) | ki/KI (TlGH12A) | Ki (LsGH10A [2]) |
| --- | --- | --- | --- | --- |
| OC[C@H]1[C@H]2O[C@H]2[C@H](O)[C@@H](O)[C@@H]1O[C@@H]1O[C@H](CO)[C@@H](O)[C@H](O)[C@H]1O [GGcyc] | clear time-dependent inhibition of LsGH5_5A, TlGH12A, and LsGH10A by GGcyc | clear time-dependent inhibition of LsGH5_5A, TlGH12A, and LsGH10A by GGcyc | clear time-dependent inhibition of LsGH5_5A, TlGH12A, and LsGH10A by GGcyc | – |
| O=C(CCCC[C@@H]1SC[C@@H]2NC(=O)N[C@@H]21)NCCCCCCCCN1[C@H]2[C@H](O)[C@@H](O)[C@H](O[C@@H]3OC[C@@H](O)[C@H](O)[C@H]3O)C[C@H]21 (stereo partly shown) [Biotin-ABP-Xyn] | – | – | – | 0.021 µM |
